Tested on: Human Tenon's capsule fibroblasts (HTCF)
Assay: Oxidative stressor dosage curve, cell metabolic activity (MTT) of HTCF
Type: cell-based
Conditions: one-hour incubation, dose-dependent, n=4
Procedure: The following preferred method was utilized in conducting the experiment: • 1) Culture cells (90% confluence) • 2) Load 5×10^4 cells/well in 24-well plates • 3) Change to serum-free medium overnight • 4) Treat cells • 5) Measure cell metabolic activity (MTT) or % cytotoxicity (LDH) • 6) Normalize results • 7) Replicate experiment with cell lines from different patients • 8) Conduct statistical analysis
1. Treat cells with serum free medium and tert-butyl hydroperoxide (t-BOOH) at 0 mM (VC), […], 0.1 mM, 0.5 mM, 1 mM and 2 mM for 30 min, 1 h, 2 h, 3 h
2. Measure cell metabolic activity with 3-(4,5-dimethylthiazol-2-yl)-2,5-diphenyltetrazolium bromide (MTT) assay
FIGS. 5A-5D show the cell metabolic activity of HTCF cells in response to treatment with tert-butyl hydroperoxide (t-BOOH).
Dose-dependent effect of a one-hour incubation.

CC(C)(C)OO [tert-butyl hydroperoxide (t-BOOH), Tert-butyl hydroperoxide]
cell metabolic activity versus control sample: significant effect versus the control sample

From patent US20230398095A1, “THERAPEUTIC AGENT FOR TREATMENT OF AGE-RELATED MACULAR DEGENERATION” (priority 2022, published 2023)
